As usually defined, the pIC50 is the IC50 on a negative log10 scale, so that one unit is a factor of ten.

pIC50: −log10 of the molar value.

24 molecules from patent US20240018122A1, “PYRIDAZINYL AMINO DERIVATIVES AS ALK5 INHIBITORS” (CHIESI FARMACEUTICI S.P.A., priority 2020, published 2024) can be followed below.

human ALK5, sequence (P36897 80-503 limits assumed): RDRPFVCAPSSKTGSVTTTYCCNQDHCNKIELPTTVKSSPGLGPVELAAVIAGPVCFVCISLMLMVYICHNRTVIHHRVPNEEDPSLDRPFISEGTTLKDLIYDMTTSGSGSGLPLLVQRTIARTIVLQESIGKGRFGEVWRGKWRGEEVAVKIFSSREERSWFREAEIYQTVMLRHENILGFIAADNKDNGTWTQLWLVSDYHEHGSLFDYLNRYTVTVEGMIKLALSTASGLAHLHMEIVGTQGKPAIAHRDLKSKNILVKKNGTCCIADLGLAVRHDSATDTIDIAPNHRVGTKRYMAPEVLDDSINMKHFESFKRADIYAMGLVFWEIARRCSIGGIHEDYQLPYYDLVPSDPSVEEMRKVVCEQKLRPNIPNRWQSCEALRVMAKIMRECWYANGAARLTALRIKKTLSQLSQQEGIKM

The assay concerns the target human ALK5 (Homo sapiens (Human), UniProt P36897). In words: ADP-GLO Kinases assay, inhibitory activity on ALK5. The conditions noted are these: purified recombinant human ALK5 2.6 nM, TGFβ1 peptide substrate, 25° C, 150 min incubation, ADP-Glo detection; read-out: ALK5 IC50. It is filed as biochemical. The procedure:
The enzymatic activity of compounds of the present invention was monitored measuring the formation of ADP using the ADP-GLO Kinases assay. Following the incubation of the purified enzyme, a substrate and ATP, the produced ADP was converted into ATP, which in turn was converted into light by Ultra-Glo Luciferase. The luminescent signal positively correlated with ADP amount and kinase activity. […] The assay was performed in 384-well format and was validated using a selection of reference compounds that was tested in 11 point concentration-response curve.
For “1-(4-{[6-(2-Chloro-5-Fluorophenyl)-3-Methylpyridazin-4-Yl]Amino}Pyridin-2-Yl)-3-[(1-Methylpiperidin-4-Yl)Methyl]Urea [Example 142]”, the pIC50 was > 9.00.

For the molecule `O=C(CCN1CCNCC1)Nc1cc(Nc2cnnc(-c3cc(Cl)ccc3F)c2)ccn1` [Example 2, N-(4-{[6-(5-Chloro-2-Fluorophenyl)Pyridazin-4-Yl]Amino}Pyridin-2-Yl)-3-(Piperazin-1-Yl)Propanamide], the pIC50 is > 9.00.

Take `Fc1ccc(Cl)cc1-c1cc(Nc2ccnc3cc(OCCN4CCOCC4)ccc23)cnn1` [Example 3, N-[6-(5-Chloro-2-Fluorophenyl)Pyridazin-4-Yl]-7-[2-(Morpholin-4-Yl)Ethoxy]Quinolin-4-Amine]: the pIC50 is > 9.00.

In the case of `O=C(NCCN1CCOCC1)c1ccc2c(Nc3cnnc(-c4cc(Cl)ccc4F)c3)ccnc2c1` [Example 4, 4-{[6-(5-Chloro-2-Fluorophenyl)Pyridazin-4-Yl]Amino}-N-[2-(Morpholin-4-Yl)Ethyl]Quinoline-7-Carboxamide], the pIC50 is > 9.00.

For `O=C(OCCN1CCOCC1)c1ccc2nccc(Nc3cnnc(-c4cc(Cl)ccc4F)c3)c2c1` [Example 5, 2-(Morpholin-4-Yl)Ethyl 4-{[6-(5-Chloro-2-Fluorophenyl)Pyridazin-4-Yl]Amino}Quinoline-6-Carboxylate], the pIC50 was 8.00 to 8.30.

`O=C(OCCN1CCOCC1)c1ccc2c(Nc3cnnc(-c4cc(Cl)ccc4F)c3)ccnc2c1` [Example 6, 2-(Morpholin-4-Yl)Ethyl 4-{[6-(5-Chloro-2-Fluorophenyl)Pyridazin-4-Yl]Amino}Quinoline-7-Carboxylate]: the pIC50 was > 9.00.

With `O=C(Nc1cc(Nc2cnnc(-c3cc(Cl)ccc3F)c2)ccn1)C1CC1` [Example 7, N-(4-{[6-(5-Chloro-2-Fluorophenyl)Pyridazin-4-Yl]Amino}Pyridin-2-Yl)Cyclopropanecarboxamide], the pIC50 was > 9.00.

Regarding `O=C(CCCN1CCOCC1)Nc1cc(Nc2cnnc(-c3cc(Cl)ccc3F)c2)ccn1` [Example 8, N-(4-{[6-(5-Chloro-2-Fluorophenyl)Pyridazin-4-Yl]Amino}Pyridin-2-Yl)-4-(Morpholin-4-Yl)Butanamide], the pIC50 is > 9.00.

In the case of `Fc1ccc(Cl)cc1-c1cc(Nc2ccnc3cc(OCCN4CCNCC4)ccc23)cnn1` [Example 9, N-[6-(5-chloro-2-fluorophenyl)pyridazin-4-yl]-7-[2-(piperazin-1-yl)ethoxy]quinolin-4-amine], the pIC50 is > 9.00.

As to `O=C(NCCN1CCNCC1)c1ccc2c(Nc3cnnc(-c4cc(Cl)ccc4F)c3)ccnc2c1` [Example 10, 4-{[6-(5-Chloro-2-Fluorophenyl)Pyridazin-4-Yl]Amino}-N-[2-(Piperazin-1-Yl)Ethyl]Quinoline-7-Carboxamide], the pIC50 is > 9.00.

`CN1CCN(CCOc2ccc3c(Nc4cnnc(-c5cc(Cl)ccc5F)c4)ccnc3c2)CC1` [Example 12, N-[6-(5-Chloro-2-Fluorophenyl)Pyridazin-4-Yl]-7-[2-(4-Methylpiperazin-1-Yl)Ethoxy]Quinolin-4-Amine]: the negative logarithm of the IC50 (pIC50) is > 9.00.

As to `CN1CCN(CCNC(=O)c2ccc3c(Nc4cnnc(-c5cc(Cl)ccc5F)c4)ccnc3c2)CC1` [Example 13, 4-{[6-(5-Chloro-2-Fluorophenyl)Pyridazin-4-Yl]Amino}-N-[3-(4-Methylpiperazin-1-Yl)Ethyl]Quinoline-7-Carboxamide], the pIC50 was > 9.00.

On to `CN1CCC(CCNC(=O)c2ccc3c(Nc4cnnc(-c5cc(Cl)ccc5F)c4)ccnc3c2)CC1` [Example 14, 4-{[6-(5-Chloro-2-Fluorophenyl)Pyridazin-4-Yl]Amino}-N-[2-(1-Methylpiperidin-4-Yl)Ethyl]Quinoline-7-Carboxamide], for which the pIC50 was > 9.00.

As for `Cc1nnc(-c2cc(Cl)ccc2F)cc1Nc1ccnc(NC(=O)CCN2CCN(C)CC2)c1` [Example 16, N-(4-{[6-(5-chloro-2-fluorophenyl)-3-methylpyridazin-4-yl]amino}pyridin-2-yl)-3-(4-methylpiperazin-1-yl)propanamide], the pIC50 is > 9.00.

As for `CN1CCC(CCOc2ccc3c(Nc4cnnc(-c5cc(Cl)ccc5F)c4)ccnc3c2)CC1` [Example 17, N-[6-(5-Chloro-2-Fluorophenyl)Pyridazin-4-Yl]-7-[2-(1-Methylpiperidin-4-Yl)Ethoxy]Quinolin-4-Amine], the pIC50 was > 9.00.

Take `CN(CCC(=O)Nc1cc(Nc2cnnc(-c3cc(Cl)ccc3F)c2)ccn1)C1COC1` [Example 18, N-(4-{[6-(5-Chloro-2-Fluorophenyl)Pyridazin-4-Yl]Amino}Pyridin-2-Yl)-3-[Methyl(Oxetan-3-Yl)Amino]Propanamide]: the pIC50 is > 9.00.

As to `CN1CCC(OC(=O)c2ccc3c(Nc4cnnc(-c5cc(Cl)ccc5F)c4)ccnc3c2)CC1` [Example 20, 1-Methylpiperidin-4-Yl 4-{[6-(5-Chloro-2-Fluorophenyl)Pyridazin-4-Yl]Amino}Quinoline-7-Carboxylate], the pIC50 was > 9.00.

`CN1CCN(CCNC(=O)c2c[nH]c3nccc(Nc4cnnc(-c5cc(Cl)ccc5F)c4)c23)CC1` [Example 21, 4-{[6-(5-Chloro-2-Fluorophenyl)Pyridazin-4-Yl]Amino}-N-[2-(4-Methylpiperazin-1-Yl)Ethyl]-1H-Pyrrolo[2,3-13]Pyridine-3-Carboxamide]: the pIC50 was 8.30 to 9.00.

In the case of `CN1CCN(CCC(=O)Nc2cc(Nc3cnnc(-c4cc(Cl)ccc4F)c3)ccn2)C(=O)C1` [Example 22, N-(4-{[6-(5-Chloro-2-Fluorophenyl)Pyridazin-4-Yl]Amino}Pyridin-2-Yl)-3-(4-Methyl-2-Oxopiperazin-1-Yl)Propanamide], the pIC50 was 8.30 to 9.00.

For `CN1CC(NC(=O)c2cc3c(Nc4cnnc(-c5cc(Cl)ccc5F)c4)ccnc3cn2)C1` [Example 23, 4-{[6-(5-Chloro-2-Fluorophenyl)Pyridazin-4-Yl]Amino}-N-(1-Methylazetidin-3-Yl)-1,7-Naphthyridine-6-Carboxamide], the pIC50 is 8.00 to 8.30.

As for `CN1CCN(CCC(=O)Nc2cc(Nc3cnnc(-c4cc(Cl)ccc4F)c3)ccn2)CC1=O` [Example 24, N-(4-{[6-(5-Chloro-2-Fluorophenyl)Pyridazin-4-Yl]Amino}Pyridin-2-Yl)-3-(4-Methyl-3-Oxopiperazin-1-Yl)Propanamide], the pIC50 was 8.30 to 9.00.

As to `CN1CCN(CCNC(=O)c2cc3c(Nc4cnnc(-c5cc(Cl)ccc5F)c4)ccnc3[nH]2)CC1` [Example 25, 4-{[6-(5-chloro-2-fluorophenyl)pyridazin-4-yl]amino}-N-[2-(4-methylpiperazin-1-yl)ethyl]-1H-pyrrolo[2,3-b]pyridine-2-carboxamide], the pIC50 was > 9.00.

Consider `CN1CCC(NC(=O)c2cc3c(Nc4cnnc(-c5cc(Cl)ccc5F)c4)ccnc3cn2)CC1` [Example 26, 4-{[6-(5-Chloro-2-Fluorophenyl)Pyridazin-4-Yl]Amino}-N-(1-Methylpiperidin-4-Yl)-1,7-Naphthyridine-6-Carboxamide], for which the negative-log IC50 (pIC50) was 8.30 to 9.00.

`CN1CCC(CCNC(=O)c2cc3c(Nc4cnnc(-c5cc(Cl)ccc5F)c4)ccnc3[nH]2)CC1` [Example 27, 4-{[6-(5-Chloro-2-Fluorophenyl)Pyridazin-4-Yl]Amino}-N-[2-(1-Methylpiperidin-4-Yl)Ethyl]-1H-Pyrrolo[2,3-b]Pyridine-2-Carboxamide]: the pIC50 was > 9.00.
